Experimental data: patent US11691960B2, “2-[thiophen-2-yl)formamido]-N-(phenyl)-2-methylpropanamide derivatives and the use thereof as medicament” (Boehringer Ingelheim International GmbH, priority 2020, dated 2023)

Tests used:
[1] = system: human hepatocytes; assay: Assay D: metabolic stability in human hepatocytes; format: in vitro ADME; conditions: for Hepatocyte stability Assay D: human hepatocytes, 1 μM, % of liver blood flow, mean +− standard deviation
Protocol: Assay D. Assessment of Metabolic Stability in Human Hepatocytes
The metabolic degradation of the test compound is assayed in a hepatocyte suspension. After recovery from cryopreservation, human hepatocytes are incubated in Dulbecco's modified eagle medium supplemented with 3.5 μg glucagon/500 mL, 2.5 mg insulin/500 mL and 3.75 mg/500 mL hydrocortisone) containing 5% or 50% human serum or in absence of serum.
Following a 30 min preincubation in a cell culture incubator (37° C., 10% CO2), 5 μl of test compound solution (80 μM; derived from a 2 mM DMSO stock solution by dilution 1:25 with medium) are added into 395 μl hepatocyte suspension, resulting in a final cell density of 1 Mio cells/mL, a final test compound concentration of 1 μM, and a final DMSO concentration of 0.05%.
The cells are incubated for six hours (incubator, orbital shaker) and samples (25 μl) are removed from the incubation after 0, 0.5, 1, 2, 4 and 6 hours. Samples are transferred into acetonitrile and pelleted by centrifugation (5 min). The supernatant is transferred to a new 96-deepwell plate, evaporated under nitrogen and resuspended prior to analysis of decline of parent compound by HPLC-MS/MS.
CLint is calculated as follows: CL_INTRINSIC=k/CD×1000/60 k: slope of the regression line for parent decline [h^−1], CD: cell density of vital cells [10e6 cells/mL],
The calculated in vitro hepatic intrinsic clearance is scaled up to the intrinsic in vivo hepatic Clearance and used to predict hepatic in vivo blood clearance (CL) by the use of a liver model (well stirred model): CL_INTRINSIC_INVIVO [ml/min/kg]=(CL_INTRINSIC [μL/min/10e6 cells]×hepatocellularity [10e6 cells/g liver]×liver factor [g/kg bodyweight])/1000 CL[ml/min/kg]=CL_INTRINSIC_INVIVO [ml/min/kg]×hepatic blood flow [ml/min/kg]/(CL_INTRINSIC_INVIVO[ml/min/kg]+hepatic blood flow [ml/min/kg])
Results are expressed as percentage of hepatic blood flow: QH[%]=CL[ml/min/kg]/hepatic blood flow [ml/min/kg])
Hepatocellularity, human: 120×10e6 cells/g liver
Liver factor, human: 25.7 g/kg bodyweight
Blood flow, human: 20.7 ml/(min×kg)

[2] = target: human androgen receptor (Homo sapiens (Human), UniProt P10275); assay: Assay B: human androgen receptor luciferase reporter assay (Indigo Biosciences); format: cell-based; conditions: for Selectivity Assay B/Assay A: ratio IC50 androgen receptor / IC50 IDO1
Sequence of human androgen receptor (P10275 whole entry): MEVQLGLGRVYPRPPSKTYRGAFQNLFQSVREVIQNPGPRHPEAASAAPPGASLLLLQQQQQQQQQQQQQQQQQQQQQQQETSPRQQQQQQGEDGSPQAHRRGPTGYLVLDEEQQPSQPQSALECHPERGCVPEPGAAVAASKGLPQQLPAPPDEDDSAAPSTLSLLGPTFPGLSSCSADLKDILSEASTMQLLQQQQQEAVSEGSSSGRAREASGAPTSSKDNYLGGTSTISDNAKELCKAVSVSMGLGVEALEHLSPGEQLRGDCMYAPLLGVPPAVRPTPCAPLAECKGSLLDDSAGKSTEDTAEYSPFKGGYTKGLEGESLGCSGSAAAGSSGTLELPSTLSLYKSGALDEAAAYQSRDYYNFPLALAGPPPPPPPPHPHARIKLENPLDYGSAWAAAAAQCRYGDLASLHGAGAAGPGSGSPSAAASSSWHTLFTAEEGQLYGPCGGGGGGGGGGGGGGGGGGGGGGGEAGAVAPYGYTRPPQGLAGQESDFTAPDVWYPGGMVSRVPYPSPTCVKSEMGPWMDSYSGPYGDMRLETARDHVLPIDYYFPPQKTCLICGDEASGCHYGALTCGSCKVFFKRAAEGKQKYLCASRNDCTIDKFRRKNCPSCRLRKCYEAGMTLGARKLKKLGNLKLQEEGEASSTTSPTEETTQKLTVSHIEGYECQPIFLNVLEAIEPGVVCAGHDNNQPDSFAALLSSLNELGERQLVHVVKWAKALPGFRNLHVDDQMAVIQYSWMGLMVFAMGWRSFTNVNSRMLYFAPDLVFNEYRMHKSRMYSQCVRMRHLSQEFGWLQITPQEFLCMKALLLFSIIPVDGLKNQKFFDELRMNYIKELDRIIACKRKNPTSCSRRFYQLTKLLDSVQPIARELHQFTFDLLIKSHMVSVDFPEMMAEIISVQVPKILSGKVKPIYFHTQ
Source text: Assay B. In Vitro Testing of Androgen Receptor Potency:
The human androgen receptor (AR) assay was run using Product #IB03001 from Indigo Biosciences. The cell line provided in this kit carries a reporter gene, induced upon AR stimulation. This reporter gene is cDNA encoding for beetle luciferase, a 62 kD protein originating from the North American firefly (Photinus pyralis). This luciferase catalyzes the mono-oxidation of D-luciferin yielding oxyluciferin, adenosine monophosphate, pyrophosphate, CO2, and photon emission. The luminescence intensity of the reaction is quantified using a luminometer.
To run the assay, the cells are thawed by adding pre-warmed cell recovery medium to each tube, then placed in a 37° C. water bath. 30000 viable cells in 200 μl are plated (collagen coated plates) and incubated at 37° C., ≥85% humidity, 5% CO2 for 24 hours. Media is replaced with compound screening medium. Cells are then challenged with 125 pM (EC80) 6a-Fl Testosterone and compounds are applied in half logarithmic dilutions from 10 μM to 10 nM. Assay plates are then incubated at 37° C., ≥85% humidity, 5% CO2 for 22-24 hours. Media is replaced with luciferase detection reagent and allowed 5 minutes to equilibrate prior to luminescence quantification.
Data Analysis consisted of calculating percentage of control between 100% (Negative control:6a-Fl Testosterone) and 0 (positive control: no 6a-FL Testosterone). Fitting of normalized values was made 4-Parameter sigmoidal binding curve (Log[conc]) vs. signal.

[3] = target: human Factor Xa (Homo sapiens (Human), UniProt P00742); assay: Assay C: human Factor Xa chromogenic substrate assay; format: biochemical; conditions: for IC50: human Factor Xa 0.86 nM, chromogenic substrate S2765; for Selectivity Assay C/Assay A: ratio IC50 Factor Xa / IC50 IDO1
Sequence of human Factor Xa (P00742 235-488): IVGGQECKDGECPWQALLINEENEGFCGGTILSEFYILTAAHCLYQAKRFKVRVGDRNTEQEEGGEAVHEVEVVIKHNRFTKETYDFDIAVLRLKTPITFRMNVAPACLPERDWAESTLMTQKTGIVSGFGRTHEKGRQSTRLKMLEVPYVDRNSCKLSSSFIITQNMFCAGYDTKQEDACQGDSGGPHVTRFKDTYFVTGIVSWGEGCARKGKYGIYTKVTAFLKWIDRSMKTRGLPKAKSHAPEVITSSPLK
Sequence of human Factor Xa (P00742 41-179 partner): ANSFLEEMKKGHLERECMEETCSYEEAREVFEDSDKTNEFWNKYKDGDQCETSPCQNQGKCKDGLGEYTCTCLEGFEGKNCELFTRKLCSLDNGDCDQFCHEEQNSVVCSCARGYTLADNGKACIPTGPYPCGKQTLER
Protocol: Assay C. In Vitro Testing of Human Factor Xa Potency:
Measurement of active human Factor Xa using a specific chromogenic substrate which is labeled with a p-nitro-anilino group (pNA). The cleavage in between the binding of the peptide substrate and the pNA-group is followed by a color change, which can be detected at 405 nm. The amount of cleaved substrate is directly proportional to the amount of active Xa.
[…] (100 U) human Factor Xa (Enzyme Research Laboratories; HFXa1011) were solved in 0.444 ml H2O (Millipore), which accords to a stock solution of 19.28 μM or 225 U/ml. Further dilutions were made in the assay buffer (Tris 100 mM, NaCL 150 mM, adjusted to a pH of 7.8 with HCL, containing 0.1% BSA and 0.05% Tween20). 25 mg (1 vial) of the chromogenic substrate S2765 (Chromogenix; S2765) was solved in 3.5 ml H2O (Millipore) to achieve a stock solution of 10 mM.
Compounds were solved and diluted in DMSO where the final dilution in the assay is 1:10 resulting in a final concentration of 1% DMSO.
• the prefinal dilution step was 1:10 in the assay buffer containing 11% DMSO resulting in 10% DMSO • final dilution in the assay is 1:10 resulting in a final concentration of 1% DMSO
Compounds were tested at final concentrations of 10 μM to 0.003 nM or lower. 5 μl human factor Xa (final concentration 0.86 nM), 2 μl compound dilution or assay buffer (containing 10% DMSO) and 8 μl assay buffer were pipetted in triplicates into a 384-well plate and incubated in the Thermomix at 24° C. for 10 minutes.
After addition of 5 μl chromogenic substrate (final concentration 0.5 mM) the enzyme-substrate reaction started and the kinetic measurement with the SpectraMax Monochromator was started within 1-2 minutes. • Parameter of measurement: (Spectra ax, Monochromator) • Absorbance; 1.LM 405 nM • Kinetic: 16 min each 2nd minute (9 times) • Negative Control (NC) 5 μl human factor Xa+10 μl assay buffer+5 μl Substrate • Positive Control (PC): 5 μl human factor Xa+2 μl Nafamostat (commercially available, final concentration: 1 μM)+8 μl assay buffer+5 μl Substrate • Blank (optional): 15 μl assay buffer+5 μl Substrate
Calculation of IC50, KI and the % effect at the highest concentration (Ratio)
For the calculation the average of the Vmax-values in between 120 sec to 720 sec were taken.
A x/y-Plot was created: x=log (M, Compound); y=vmax (drfu/min)
The data were analyzed with the curve fitting model: log (inhibitor) vs. response—Variable slope (four parameters)
The results of this fit were Top, Bottom, Log (IC50, M), Hillslope and IC50 (M)

SMILES	Hepatocyte stability Assay D [1]	Selectivity Assay B/Assay A [2]	IC50 [3]	Selectivity Assay C/Assay A [3]	IC50 ([2]; challenge with 125 pM (EC80) 6a-Fl Testosterone, mean +− standard deviation)	metabolic stability in human hepatocytes (in words) [1]	antiandrogenic activity (in words) [2]	inhibition of the human Factor Xa enzyme (in words) [3]
CC(C)(NC(=O)c1ccc(Br)s1)C(=O)Nc1ccc(Cl)c(F)c1 [Example 1, 2-[(5-bromothiophen-2-yl)formamido]-N-(4-chloro-3-fluorophenyl)-2-methylpropanamide]	<4.1 % QH	43	> 10 µM	>57	–	–	–	–
CC(C)(NC(=O)c1ccc(Br)s1)C(=O)Nc1ccc(Br)cc1 [Example 2, 2-[(5-bromothiophen-2-yl)formamido]-N-(4-bromophenyl)-2-methylpropanamide]	<4.1 % QH	>52	> 10 µM	>52	> 10 µM	–	–	–
CC(C)(NC(=O)c1cccs1)C(=O)Nc1ccc(C#N)c(C(F)(F)F)c1 [WO98/22432 example 53]	–	0.7	–	–	–	very low metabolic stability	have antiandrogenic activity	–
Cc1ccc(C(=O)NC(C)(C)C(=O)Nc2ccc(C#N)c(C(F)(F)F)c2)s1 [WO98/22432 example 86]	–	4.9	–	–	–	very low metabolic stability	have antiandrogenic activity	–
CC1CCC(C)N1c1ccc(NC(=O)C(C)(C)NC(=O)c2ccc(Cl)s2)cc1 (stereo not shown) [WO2005/111013 Ex. 22]	–	–	0.429 µM	0.37	–	medium metabolic stability	–	inhibits the human Factor Xa enzyme
